Here are results for eight compounds from PMC11401107 (Heliyon, 2024).

In general, IC50 refers to the midpoint of a concentration-inhibition curve. The inhibition is the share of the control response that was lost under treatment. For orientation: viability means the share of living cells, or the viability signal relative to a control. A higher viability goes with better survival.

For data set [1], the system named is human blood mononuclear cells (MNCs). As to the kind of experiment: Cell viability assay. It counts as cell-based. The settings on record: MNCs; 0.25 mM; Mean ± SEM, n = 3.
Data set [2] addresses T1, soybean 15-LOX (Glycine max, UniProt P08170).
T1 sequence (P08170 1-839): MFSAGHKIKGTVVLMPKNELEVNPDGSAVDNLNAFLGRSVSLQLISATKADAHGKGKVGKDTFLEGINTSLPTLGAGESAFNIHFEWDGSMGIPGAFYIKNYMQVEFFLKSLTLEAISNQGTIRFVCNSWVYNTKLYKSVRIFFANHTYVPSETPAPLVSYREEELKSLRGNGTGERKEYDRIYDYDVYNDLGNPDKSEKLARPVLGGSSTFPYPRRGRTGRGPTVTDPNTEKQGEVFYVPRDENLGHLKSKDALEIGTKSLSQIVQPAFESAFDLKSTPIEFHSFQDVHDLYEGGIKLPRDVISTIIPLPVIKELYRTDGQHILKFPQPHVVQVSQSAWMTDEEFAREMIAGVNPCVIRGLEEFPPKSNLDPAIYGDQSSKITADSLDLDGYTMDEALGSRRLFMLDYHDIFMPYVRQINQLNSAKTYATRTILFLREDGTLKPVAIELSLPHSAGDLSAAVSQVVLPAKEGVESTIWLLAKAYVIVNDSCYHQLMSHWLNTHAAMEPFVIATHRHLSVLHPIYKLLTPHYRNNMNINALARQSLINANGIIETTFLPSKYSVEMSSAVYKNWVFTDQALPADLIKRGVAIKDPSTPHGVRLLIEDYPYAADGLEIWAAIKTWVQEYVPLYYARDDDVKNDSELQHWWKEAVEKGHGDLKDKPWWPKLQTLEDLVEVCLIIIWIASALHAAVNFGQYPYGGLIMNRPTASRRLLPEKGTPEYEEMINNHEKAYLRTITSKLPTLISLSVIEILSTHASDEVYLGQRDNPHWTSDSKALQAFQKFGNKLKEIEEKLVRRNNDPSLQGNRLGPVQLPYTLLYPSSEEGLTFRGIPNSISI
Briefly: 15-LOX inhibition assay. Type of data set: biochemical. The settings on record: for 15-LOX assay Inhibition (%) at 0.25 mM / 15-LOX assay IC50 (μM) / IC50: Mean ± SEM, n = 3; for IC50: read-out: 15-LOX assay IC50; for inhibition at 250 µM: read-out: 15-LOX assay Inhibition (%) at 0.25 mM.

A short description of data set [3]: Cell viability assay. It counts as cell-based, human. As to conditions: human, human blood mononuclear cells (MNCs), pH 7.4.
Data set [4] has as its system LOX. As to conditions: LOX inhibition; cited from earlier work.

For the compound `CCn1c(SC(C)C(=O)Nc2c(C)cccc2C)nnc1C1CCN(C(=O)Nc2ccccc2)CC1` (centres unmarked) [7k, 2-(5-(1-Phenylcarbamoylpiperdine-4-yl)-4-ethyl-4H-1,2,4-triazol-3-ylthio)-N-2,6-dimethylphenylpropanamide], the “MTT assay Cell viability (%) at 0.25 mM” value in data set [1] was found to be 75.67 ± 2.8%. In addition, in data set [2], the “15-LOX assay Inhibition (%) at 0.25 mM” value was 56.49 ± 1.59%, the “15-LOX assay IC50 (μM)” value was “inactive” and the half-maximal inhibitory concentration (IC50) was above 200 µM.
The corresponding values for `CCn1c(SC(C)C(=O)Nc2cc(C)cc(C)c2)nnc1C1CCN(C(=O)Nc2ccccc2)CC1` (centres unmarked) [7m, 2-(5-(1-Phenylcarbamoylpiperdine-4-yl)-4-ethyl-4H-1,2,4-triazol-3-ylthio)-N-3,5-dimethylphenylpropanamide] are 78.24 ± 2.7%, 57.37 ± 1.46%, “inactive” and above 200 µM.
Take `O=c1cc(-c2ccccc2)oc2cc(O)c(O)c(O)c12` [Baicalein, reference compound]: the inhibition at 250 µM in data set [2] came to 93.8 ± 1.27%.
`COc1cc(/C=C/C(=O)CC(=O)/C=C/c2ccc(O)c(OC)c2)ccc1O` [Curcumin, reference compound] came in with a viability at 2 h, 0.25 mM in data set [3] of 71.8 ± 2.8%.
`O=P1(N(CCCl)CCCl)NCCCO1` (centres unmarked) [Cyclophosphamide, reference compound]: the viability at 2 h, 0.25 mM in data set [3] stood at 58.5 ± 2.6%.
In the case of `O=c1c(O)c(-c2ccc(O)c(O)c2)oc2cc(O)cc(O)c12` [Quercetin, reference compound], the inhibition at 250 µM in data set [2] was 96.6 ± 1.24%.
Regarding `COc1ccc(-c2csc3nc(-c4ccccc4)c(NC(C)(C)CC(C)(C)C)n23)cc1` [i, 3-(4-methoxyphenyl)-N-(2,4,4-trimethylpentane-2-yl)-6-phenylimidazo [2,1-b]thiazol-5-amine], the IC50 in data set [4] is 11.5 ± 0.78 µM.
For `Cc1ccc(NN=C2C(=N)N(c3ccc(S(N)(=O)=O)cc3)N=C2N)cc1` [ii, 4-{3-amino-4-[(4-methylphenyl)-hydrazono]-5-imino-4,5-dihydropyrazol-1-yl}-benzenesulfonamide], the IC50 in data set [4] was 1.92 ± 0.01 µM.
